Laboratory results published in US20180064646A1, “METHOD AND DEVICE FOR ADMINISTERING XINAFOATE SALT OF N4-(2,2-DIFLUORO-4H-BENZO[1,4]OXAZIN-3-ONE)-6-YL]-5-FLUORO-N2-[3-(METHYLAMINOCARBONYLMETHYLENEOXY)PHENYL]2,4-PYRIMIDINEDIAMINE” (Rigel Pharmaceutical, Inc., priority 2011, published 2018).
Counter-ions that a name gives are not always drawn.

How the values were obtained:
Format in all cases: physicochemical
[1] = Solvation/hydration assessed by thermogravimetric analysis (TGA); solid form screening; conditions: for hydration or solvation: TGA, ambient to 300° C. at 20° C./min
Protocol: (§1) Hygroscopicity was assessed using dynamic vapor sorption equipment (Surface Measurement Systems Ltd, model DVS-1). The analysis was conducted at 30° C. with a nitrogen gas flow of 200 cc/min. Water sorption and desorption were determined in the range 0 to 90% relative humidity (RH) using 15% RH intervals. Exposure was for a minimum of 2 hours at each humidity, or until the rate of weight change was less than 0.0003%/minute (averaged over 10 minutes). Sample weight was 12.6 mg. The sample was weighed using a CAHN D-200, seven place digital recording balance, which is an integral part of the equipment. […] Solvation/Hydration was assessed by thermogravimetric analysis (TGA) using a TA Instruments Hi-Res TGA 2950 instrument measuring the weight loss of an 8.8 mg sample in an open platinum pan. The sample was heated at 20° C./min from ambient to 300° C. utilizing a nitrogen furnace purge gas.

[2] = Hygroscopicity by dynamic vapor sorption (DVS)
Protocol: as §1

[3] = Solid state stability and excipient compatibility on storage (drug content and impurities); conditions: for % main band remaining versus control: API
Protocol: In order to test for solid state stability and excipient compatibility, a sample of the xinafoate salt was micronized by jet milling (particle size: D10=0.24 μm; D50=1.15 D90=4.29 μm) and the resulting powder was blended at a 1:100 weight ratio with lactose monohydrate (Respitose grade SV008). Samples were stored for 12 weeks at 25° C./60% relative humidity and 40° C./75% relative humidity and assayed for remaining drug content and impurities at 4, 8 and 12 weeks. A control sample was stored at 5° C./0% humidity.

hydration or solvation [1] | hygroscopicity ([2]; DVS, 0 to 90% RH, 30° C.) | water sorption ([2]; at 90% RH, 30° C., DVS, unmicronized sample) [%] | water sorption ([2]; at 90% relative humidity, following micronization using jet milling) [%] | solid form after micronization ([2]; following micronization using jet milling) | time for which stable ([3]; 25° C./60% relative humidity) | time for which stable ([3]; 40° C./75% relative humidity) | % main band remaining versus control ([3]; 25° C./60% RH, 4 weeks, control 5° C./0% humidity) [%] | % main band remaining versus control ([3]; 25° C./60% RH, 8 weeks) [%] | % main band remaining versus control ([3]; 25° C./60% RH, 12 weeks) [%] | % main band remaining versus control ([3]; 40° C./75% RH, 4 weeks) [%] | % main band remaining versus control ([3]; 40° C./75% RH, 8 weeks) [%] | % main band remaining versus control ([3]; 40° C./75% RH, 12 weeks) [%] | Compound | solvate formation ([1]; nine solvents tested)
does not show any hydration or solvation | essentially non-hygroscopic | 0.6 | 0.9 | no change in solid form | at least two years | at least six months | 100.2 | 99.9 | 100.1 | 100.4 | 100.0 | 100.0 | CNC(=O)COc1cccc(Nc2ncc(F)c(Nc3ccc4c(c3)NC(=O)C(F)(F)O4)n2)c1 [xinafoate salt, N4-[(2,2-difluoro-4H-benzo[1,4]oxazin-3-one)-6-yl]-5-fluoro-N2-[3-(methylaminocarbonylmethyleneoxy)phenyl]-2,4-pyrimidinediamine] | –
hydrates to form a hemihydrate | – | – | – | – | – | – | – | – | – | – | – | – | CNC(=O)COc1cccc(Nc2ncc(F)c(Nc3ccc4c(c3)NC(=O)C(F)(F)O4)n2)c1 [free base, N4-[(2,2-difluoro-4H-benzo[1,4]oxazin-3-one)-6-yl]-5-fluoro-N2-[3-(methylaminocarbonylmethyleneoxy)phenyl]-2,4-pyrimidinediamine] | formed a different solvated form in each of nine solvents tested
